Assay results taken from ChEMBL document CHEMBL4219204, “Structure-based design and discovery of potent and selective KDM5 inhibitors” (Bioorg Med Chem Lett, 2018).
Calls of active or inactive are those of the source. The rule behind the calls is not given here.

Legend:
[1] = Drug uptake in tumor of nude mouse xenografted with human MCF7 cells at 75 mg/kg, po qd for 5 days measured at 1 hr post last dose; type: ADME, organism-based, Neoplasm; details: in vivo
[2] = target: ATP-dependent translocase ABCB1 (Homo sapiens, UniProt P08183); experiment: Inhibition of MDR1 (unknown origin); type: ADME
Chain of ATP-dependent translocase ABCB1 (P08183 whole entry): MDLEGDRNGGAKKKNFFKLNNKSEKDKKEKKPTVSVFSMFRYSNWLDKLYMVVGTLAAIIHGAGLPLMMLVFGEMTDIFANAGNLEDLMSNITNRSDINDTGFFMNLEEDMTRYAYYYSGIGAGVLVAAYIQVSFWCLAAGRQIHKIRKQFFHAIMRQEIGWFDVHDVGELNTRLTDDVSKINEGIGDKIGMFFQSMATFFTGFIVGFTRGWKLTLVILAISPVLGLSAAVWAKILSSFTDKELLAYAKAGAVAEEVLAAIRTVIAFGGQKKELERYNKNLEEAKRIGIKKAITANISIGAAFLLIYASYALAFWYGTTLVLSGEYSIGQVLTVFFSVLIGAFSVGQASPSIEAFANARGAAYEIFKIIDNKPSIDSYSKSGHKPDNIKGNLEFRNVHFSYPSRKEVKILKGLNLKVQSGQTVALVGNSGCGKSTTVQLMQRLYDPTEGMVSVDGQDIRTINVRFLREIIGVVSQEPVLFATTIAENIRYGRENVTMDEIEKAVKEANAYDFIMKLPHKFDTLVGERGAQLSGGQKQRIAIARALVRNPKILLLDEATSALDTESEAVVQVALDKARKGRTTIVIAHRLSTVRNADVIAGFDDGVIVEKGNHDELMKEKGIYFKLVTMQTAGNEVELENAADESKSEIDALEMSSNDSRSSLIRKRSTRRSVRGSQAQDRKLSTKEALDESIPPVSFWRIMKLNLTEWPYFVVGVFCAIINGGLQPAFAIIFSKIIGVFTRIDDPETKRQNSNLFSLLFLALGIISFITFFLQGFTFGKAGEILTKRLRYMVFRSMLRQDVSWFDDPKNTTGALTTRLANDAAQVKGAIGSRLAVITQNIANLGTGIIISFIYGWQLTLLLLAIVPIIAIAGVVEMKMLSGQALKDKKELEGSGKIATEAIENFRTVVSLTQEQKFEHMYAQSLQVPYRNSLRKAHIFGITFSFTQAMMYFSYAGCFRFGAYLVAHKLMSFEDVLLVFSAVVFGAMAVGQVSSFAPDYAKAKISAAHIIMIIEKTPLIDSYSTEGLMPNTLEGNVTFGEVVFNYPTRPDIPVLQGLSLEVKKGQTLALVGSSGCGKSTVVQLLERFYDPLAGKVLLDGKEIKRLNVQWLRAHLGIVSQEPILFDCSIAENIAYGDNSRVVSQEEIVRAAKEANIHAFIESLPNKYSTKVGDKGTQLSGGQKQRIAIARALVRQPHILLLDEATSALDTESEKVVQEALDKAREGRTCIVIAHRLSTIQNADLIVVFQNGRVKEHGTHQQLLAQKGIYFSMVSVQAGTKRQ

[3] = target: T1, Lysine-specific demethylase 3A (Homo sapiens, UniProt Q9Y4C1); experiment: Inhibition of KDM3A (unknown origin)
T1 sequence (Q9Y4C1 whole entry): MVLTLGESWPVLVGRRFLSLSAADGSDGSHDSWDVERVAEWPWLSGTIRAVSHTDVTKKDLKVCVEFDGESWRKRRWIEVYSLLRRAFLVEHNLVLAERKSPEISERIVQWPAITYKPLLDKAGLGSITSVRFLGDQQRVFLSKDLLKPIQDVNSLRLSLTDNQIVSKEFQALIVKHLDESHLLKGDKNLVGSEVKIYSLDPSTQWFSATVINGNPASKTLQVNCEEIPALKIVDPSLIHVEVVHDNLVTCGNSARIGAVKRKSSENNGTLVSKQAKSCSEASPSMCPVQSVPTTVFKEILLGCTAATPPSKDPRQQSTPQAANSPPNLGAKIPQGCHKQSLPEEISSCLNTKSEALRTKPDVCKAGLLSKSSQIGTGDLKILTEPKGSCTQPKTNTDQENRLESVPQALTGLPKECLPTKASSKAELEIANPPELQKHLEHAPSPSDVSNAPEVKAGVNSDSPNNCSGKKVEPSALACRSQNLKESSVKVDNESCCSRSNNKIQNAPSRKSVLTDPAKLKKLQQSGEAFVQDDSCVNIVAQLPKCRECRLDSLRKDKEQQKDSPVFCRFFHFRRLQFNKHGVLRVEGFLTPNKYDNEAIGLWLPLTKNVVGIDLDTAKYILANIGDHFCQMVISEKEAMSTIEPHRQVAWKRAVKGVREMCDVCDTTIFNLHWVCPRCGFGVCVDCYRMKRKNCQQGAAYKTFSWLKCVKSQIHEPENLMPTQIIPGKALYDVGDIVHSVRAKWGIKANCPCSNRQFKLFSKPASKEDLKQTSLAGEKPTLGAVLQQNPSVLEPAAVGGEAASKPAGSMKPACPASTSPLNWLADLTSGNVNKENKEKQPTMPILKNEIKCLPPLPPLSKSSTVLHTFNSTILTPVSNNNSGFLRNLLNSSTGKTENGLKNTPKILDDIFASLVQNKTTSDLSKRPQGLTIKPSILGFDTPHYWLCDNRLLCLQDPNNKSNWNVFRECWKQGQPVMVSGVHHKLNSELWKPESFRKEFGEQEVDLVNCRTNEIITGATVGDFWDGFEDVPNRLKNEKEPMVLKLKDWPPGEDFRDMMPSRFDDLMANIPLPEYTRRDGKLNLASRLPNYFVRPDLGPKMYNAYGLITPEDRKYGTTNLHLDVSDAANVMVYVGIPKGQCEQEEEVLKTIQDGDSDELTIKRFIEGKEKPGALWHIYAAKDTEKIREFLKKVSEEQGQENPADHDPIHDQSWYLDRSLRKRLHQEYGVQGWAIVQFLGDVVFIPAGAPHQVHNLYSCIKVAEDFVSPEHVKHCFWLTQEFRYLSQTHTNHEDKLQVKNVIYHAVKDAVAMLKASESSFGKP

[4] = Kinetic solubility of the compound; type: physicochemical
Mus musculus [5] = experiment: In vivo inhibition of KDM5 in nude mouse xenografted with human MCF7 cells assessed as increase in H3K4me3 level in tumor at 75 mg/kg, po qd for 5 days measured up to 24 hrs post last dose by Western blot analysis; type: functional, organism-based
[6] = target: Lysine-specific demethylase 5A/5B (Homo sapiens, UniProt P29375+Q9UGL1); experiment: Inhibition of KDM5A/KDM5B in human ZR-75-1 cells assessed as increase in H3K4me3 level after 72 hrs by fluorometric immunoassay; type: cell-based
[7] = target: Lysine-specific demethylase 6B (Homo sapiens, UniProt O15054); experiment: Inhibition of KDM6B (unknown origin)
Chain of Lysine-specific demethylase 6B (O15054 whole entry): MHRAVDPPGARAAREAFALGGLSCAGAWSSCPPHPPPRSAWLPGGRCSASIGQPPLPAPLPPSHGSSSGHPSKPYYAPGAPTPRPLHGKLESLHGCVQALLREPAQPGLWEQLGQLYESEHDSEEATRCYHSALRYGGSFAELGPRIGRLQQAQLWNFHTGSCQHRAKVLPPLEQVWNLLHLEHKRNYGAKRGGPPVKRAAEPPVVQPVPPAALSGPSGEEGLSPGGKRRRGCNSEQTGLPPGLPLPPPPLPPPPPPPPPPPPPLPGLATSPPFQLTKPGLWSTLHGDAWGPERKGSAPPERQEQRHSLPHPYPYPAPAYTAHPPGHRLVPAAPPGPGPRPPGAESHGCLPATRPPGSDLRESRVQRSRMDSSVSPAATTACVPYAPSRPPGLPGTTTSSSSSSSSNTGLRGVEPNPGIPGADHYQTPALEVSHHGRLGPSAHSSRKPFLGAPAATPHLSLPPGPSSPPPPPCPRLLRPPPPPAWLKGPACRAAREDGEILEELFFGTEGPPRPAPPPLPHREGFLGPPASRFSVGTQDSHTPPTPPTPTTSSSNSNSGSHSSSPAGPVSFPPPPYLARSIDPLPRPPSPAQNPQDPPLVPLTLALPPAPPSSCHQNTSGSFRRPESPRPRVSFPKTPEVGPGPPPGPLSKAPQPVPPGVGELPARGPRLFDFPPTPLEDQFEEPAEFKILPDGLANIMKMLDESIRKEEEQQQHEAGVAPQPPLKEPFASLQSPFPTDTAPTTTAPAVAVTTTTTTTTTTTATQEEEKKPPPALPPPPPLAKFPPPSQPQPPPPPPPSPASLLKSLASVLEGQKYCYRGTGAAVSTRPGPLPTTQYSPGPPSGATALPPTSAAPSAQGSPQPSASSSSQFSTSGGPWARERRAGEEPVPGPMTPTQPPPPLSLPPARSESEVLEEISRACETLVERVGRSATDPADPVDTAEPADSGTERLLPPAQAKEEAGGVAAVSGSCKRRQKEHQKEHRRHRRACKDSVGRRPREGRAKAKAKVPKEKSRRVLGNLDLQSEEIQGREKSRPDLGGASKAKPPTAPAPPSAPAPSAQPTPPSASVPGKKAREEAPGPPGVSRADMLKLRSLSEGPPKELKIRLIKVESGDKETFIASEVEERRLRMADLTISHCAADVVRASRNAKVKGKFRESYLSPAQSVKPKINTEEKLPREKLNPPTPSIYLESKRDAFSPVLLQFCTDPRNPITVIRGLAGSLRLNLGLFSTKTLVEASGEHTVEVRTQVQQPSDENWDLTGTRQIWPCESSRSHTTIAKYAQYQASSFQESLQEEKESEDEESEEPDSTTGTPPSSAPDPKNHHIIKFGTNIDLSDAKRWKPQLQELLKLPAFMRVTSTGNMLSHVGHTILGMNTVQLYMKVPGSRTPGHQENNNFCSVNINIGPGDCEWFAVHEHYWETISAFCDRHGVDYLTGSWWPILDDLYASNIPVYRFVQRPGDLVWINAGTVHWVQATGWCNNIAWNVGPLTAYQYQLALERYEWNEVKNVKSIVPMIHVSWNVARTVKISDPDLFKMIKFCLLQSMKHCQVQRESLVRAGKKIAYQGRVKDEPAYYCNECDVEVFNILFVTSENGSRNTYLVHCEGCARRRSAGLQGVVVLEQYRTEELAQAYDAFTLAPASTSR

[8] = Protein binding in mouse plasma; type: ADME, cell-free; details: read-out: PPB (converted)
[9] = Oral bioavailability in CD-1 mouse at 10 mg/kg; type: ADME, organism-based; details: in vivo
Mus musculus [10] = experiment: In vivo inhibition of KDM5 in nude mouse xenografted with human MCF7 cells assessed as increase in H3K4me3 level in tumor at 75 mg/kg, po qd for 5 days measured at 0.5 hrs post last dose by Western blot analysis relative to control; type: functional
[11] = target: T2, Lysine-specific demethylase 4A (Homo sapiens, UniProt O75164); experiment: Inhibition of KDM4A (unknown origin)
T2 sequence (O75164 whole entry): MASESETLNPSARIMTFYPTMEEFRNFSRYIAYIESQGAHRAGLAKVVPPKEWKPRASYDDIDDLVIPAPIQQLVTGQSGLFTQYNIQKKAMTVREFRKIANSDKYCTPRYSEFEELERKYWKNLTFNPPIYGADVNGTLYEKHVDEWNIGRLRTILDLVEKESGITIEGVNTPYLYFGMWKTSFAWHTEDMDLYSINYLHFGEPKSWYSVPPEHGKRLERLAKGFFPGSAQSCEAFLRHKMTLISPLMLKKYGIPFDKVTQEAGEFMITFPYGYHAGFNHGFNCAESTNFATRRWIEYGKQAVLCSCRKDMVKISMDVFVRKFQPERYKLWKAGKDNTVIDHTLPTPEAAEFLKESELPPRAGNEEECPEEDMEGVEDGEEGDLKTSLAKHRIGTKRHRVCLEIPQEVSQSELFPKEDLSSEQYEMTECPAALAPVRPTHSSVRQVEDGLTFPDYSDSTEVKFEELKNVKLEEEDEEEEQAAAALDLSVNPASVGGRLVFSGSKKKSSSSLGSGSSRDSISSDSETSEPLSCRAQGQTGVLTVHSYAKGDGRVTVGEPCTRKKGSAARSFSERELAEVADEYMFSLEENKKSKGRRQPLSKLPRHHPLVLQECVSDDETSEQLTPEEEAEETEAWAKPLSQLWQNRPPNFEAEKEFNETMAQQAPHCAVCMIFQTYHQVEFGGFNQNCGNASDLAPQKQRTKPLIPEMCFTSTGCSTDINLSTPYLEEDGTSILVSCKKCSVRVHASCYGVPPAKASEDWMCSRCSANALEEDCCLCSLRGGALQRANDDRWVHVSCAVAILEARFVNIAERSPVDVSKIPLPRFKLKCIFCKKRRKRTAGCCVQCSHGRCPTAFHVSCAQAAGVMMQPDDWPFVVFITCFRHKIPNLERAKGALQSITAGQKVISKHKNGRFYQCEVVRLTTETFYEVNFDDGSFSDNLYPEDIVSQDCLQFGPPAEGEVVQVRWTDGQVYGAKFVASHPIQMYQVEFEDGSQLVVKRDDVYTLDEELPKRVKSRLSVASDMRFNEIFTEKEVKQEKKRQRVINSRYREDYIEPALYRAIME

- Drug uptake [1]: Active
- inhibition (INH) [2]: Not Active
- IC50 [3]: 2.3 µM
- Kinetic_solubility [4]: Soluble
- EC50 [6]: 0.09 µM
- IC50 [7]: 2.3 µM
- fraction unbound [8]: 0.009
- bioavailability [9]: 55%
- IC50 [11]: 0.099 µM
Structure (SMILES): Cc1cc(Cl)ccc1COc1ccnn1-c1cc(C(=O)O)ccn1
- inhibition (Mus musculus [5]): Active
- fold change (FC) (Mus musculus [10]): >2
